Assay results reported in patent publication US20110257220A1, “3,11 b-cis-Dihydrotetrabenazine for the Treatment of Schizophrenia and Other Psychoses” (CAMBRIDGE LABORATORIES (IRELAND) LIMITED, priority 2005, published 2011).

How the values were obtained:
[1] = system: female hooded-Lister rats; assay: Novel object recognition (NOR) task, sub-chronic PCP-induced cognitive deficit; format: in vivo, rat; settings: 0.2 mg/kg risperidone i.p.; sub-chronic PCP rats; did not reach statistical significance; FIG. 3
Description: Certain pre-clinical tests allow the observation of relatively subtle cognitive deficits in the rat that resemble cognitive symptoms in subjects with schizophrenia. The cognitive deficits observed are seen in behaviours such as working memory deficits which may be measured by recognition tasks such as the novel object recognition (NOR) paradigm. A recognition memory task allows the comparison between presented stimuli and previously stored information. Ennaceur & Delacour, Behav. Brain Res. 31: 47-59 (1988) described the NOR test in rats which was based on the differential exploration of familiar and new objects. The NOR test is a non-rewarded, ethologically relevant paradigm based on the spontaneous exploratory behaviour of rats which measures working memory. Each session consists of two trials. In the first trial, the rats are exposed to two identical objects in an open field. During the second trial, rats are exposed to two dissimilar objects, one familiar object from the first trial and one new object. Object recognition in rats can be measured as the difference in time spent exploring the familiar and the new object.
The abovementioned rodent model was used to assess the effects of the Isomer A on sub-chronic PCP-induced deficits in working memory using the novel object recognition (NOR) paradigm. The working hypothesis was that both acute and sub-chronic treatment with Isomer A will attenuate the selective working memory deficit induced by sub-chronic PCP as measured in the NOR test paradigm.
Rats are allowed to habituate to the empty test box and the behavioural test room environment for 1 hour on day 1. Prior to behavioural testing on day 2 rats are given a further 3 minutes habituation.
Following the 3 minute habituation period, the rats are given two 3 minute trials (T1 and T2) which are separated by a 1 minute inter-trial interval in the home cage during which the objects are changed.
In this trial, the animals are allowed to explore two identical objects (A1 and A2) for 3 minutes.
In this trial, the animals explore a familiar object (A) from T1 and a novel object (B) for 3 minutes. The familiar object presented during T2 is a duplicate of the object presented in T1 in order to avoid any olfactory trails.
The object exploration is defined by animals licking, sniffing or touching the object with the forepaws whilst sniffing, but not leaning against, turning around, standing or sitting on the object. The exploration time (s) of each object (A1, A2, A and B) in each trial are recorded using two stopwatches and the following factors are calculated: • Total exploration time of both objects in the acquisition trial (s). • Total exploration time of both objects in the retention trial (s). • Habituation of exploratory activity. The LMA includes the exploration time, as measured by the number of lines crossed, for both the trials. • Discrimination index, which is calculated as shown below;
(time spent exploring novel object−time spent exploring familiar object)÷total time spent in exploring the objects
Behaviour in all trials was recorded on video for subsequent blind scoring.
50 female hooded-Lister rats (Harlan, UK) were used as subjects for these studies. Rats were housed in groups of 5 under standard laboratory conditions under a 12 hr light:dark cycle, lights on at 0700 hr. All testing was carried out in the light phase. Food and water were freely provided. […]

[2] = system: female hooded-Lister rats; settings: risperidone; Grayson et al; cited from earlier work

## Cc1nc2n(c(=O)c1CCN1CCC(c3noc4cc(F)ccc34)CC1)CCCC2 [risperidone, reference compound]
[1]
  Discrimination index (DI): improved
[2]
  Sub-chronic PCP-induced deficit in NOR paradigm: efficacy of risperidone to attenuate
